Literature values, collected in patent US10975131B2, “Factor H-Fc immunotheraphy” (priority 2015, dated 2021).
Like-named read-outs stand apart in the source and are kept apart here.

Tested on: N. gonorrhoeae strains

CO/N=C(\C(=O)N[C@@H]1C(=O)N2C(C(=O)O)=C(CSc3nc(=O)c(=O)[nH]n3C)CS[C@H]12)c1csc(N)n1 [Ceftriaxone, ceftriaxone]
Ceftriaxone MIC (strain CTXr (Spain), resistant): 2 (resistant) ug/ml | Ceftriaxone MIC (strain FA1090): 0.004 µg/mL | Ceftriaxone MIC (strain H041, resistant): 2-4 (resistant) ug/ml | Ceftriaxone MIC (strain MS11): 0.032 µg/mL | Ceftriaxone MIC (strain NJ-1, agar dilution): 0.023 µg/mL | Ceftriaxone MIC (strain NJ-11, agar dilution): 0.047 µg/mL | Ceftriaxone MIC (strain NJ-15, agar dilution): 0.047 µg/mL | Ceftriaxone MIC (strain NJ-19, agar dilution): 0.032 µg/mL | Ceftriaxone MIC (strain NJ-26, agar dilution): 0.032 µg/mL | Ceftriaxone MIC (strain NJ-27, agar dilution): 0.064 µg/mL | Ceftriaxone MIC (strain NJ-36, agar dilution): 0.032 µg/mL | Ceftriaxone MIC (strain NJ-44, agar dilution, elevated MIC to CRO): 0.125 (elevated ug/ml | Ceftriaxone MIC (strain NJ-48, agar dilution, elevated MIC to CRO): 0.125 (elevated ug/ml | Ceftriaxone MIC (strain NJ-60, agar dilution, resistant): 0.380 (resistant) ug/ml
